The text below walks through data of US8163793B2, “Proline derivatives” (Hoffman-La Roche Inc., priority 2009, dated 2012).

The target of one test is Cathepsin S (UniProt P25774). The test is described as follows: Cathepsin enzyme inhibition assay (fluorogenic peptide substrate Z-Val-Val-Arg-AMC), Cathepsin S. It counts as biochemical, human and mouse. Particulars: enzyme 1 nM, substrate 20 μM, pH 6.5; read-out: CatS IC50. An outline of the steps:
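Human or mouse cathepsin S (1 nM) was run in 100 mM potassium phosphate pH 6.5 with 5 mM EDTA, 0.001% Triton X-100 and 5 mM DTT. The rise in AMC fluorescence from cleavage was measured, and IC50 values were calculated by standard methods and expressed in μM.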

For the next test, the target named is Cat L (UniProt P07711). In words: Cathepsin enzyme inhibition assay (fluorogenic peptide substrate Z-Val-Val-Arg-AMC), Cathepsin L. It counts as biochemical, human and mouse. As to conditions: enzyme 1 nM, substrate 20 μM, pH 6.5; read-out: CatL IC50. An outline of the steps:
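Cathepsin L at 1 nM was mixed with compound, then started with 20 μM Z-Val-Val-Arg-AMC in pH 6.5 potassium phosphate with EDTA, Triton X-100 and 5 mM DTT. AMC fluorescence (ex 360/em 465 nm) was followed over 20 min. IC50 is given in μM.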

In the case of `CN1CCN(c2ccc(S(=O)(=O)[C@@H]3C[C@@H](C(=O)NC4(C#N)CC4)N(C(=O)C4(C(F)(F)F)CC4)C3)c(Cl)c2)CC1` [Example 290, (2S,4R)-4-[2-Chloro-4-(4-methyl-piperazin-1-yl)-benzenesulfonyl]-1-(1-trifluoromethyl-cyclopropanecarbonyl)-pyrrolidine-2-carboxylic acid (1-cyano-cyclopropyl)-amide], the IC50 on Cathepsin S was 0.13 nM; on Cat L, 1600 nM.

As to `CN(C)c1ccc(S(=O)(=O)[C@@H]2C[C@@H](C(=O)NC3(C#N)CC3)N(C(=O)C3(C(F)(F)F)CC3)C2)c(Cl)c1` [Example 292, (2S,4R)-4-(2-Chloro-4-dimethylamino-benzenesulfonyl)-1-(1-trifluoromethyl-cyclopropanecarbonyl)-pyrrolidine-2-carboxylic acid (1-cyano-cyclopropyl)-amide], the IC50 at Cathepsin S was 0.157 nM; at Cat L, 4130 nM.

With `CC(C)N1CCN(c2ccc(S(=O)(=O)[C@@H]3C[C@@H](C(=O)NC4(C#N)CC4)N(C(=O)C4(C(F)(F)F)CC4)C3)c(Cl)c2)CC1` [Example 293, (2S,4R)-4-[2-Chloro-4-(4-isopropyl-piperazin-1-yl)-benzenesulfonyl]-1-(1-trifluoromethyl-cyclopropanecarbonyl)-pyrrolidine-2-carboxylic acid (1-cyano-cyclopropyl)-amide], the IC50 is 0.18 nM on Cathepsin S and 1400 nM at Cat L.

Turning to `CC1(C(=O)N2C[C@H](S(=O)(=O)c3ccc(OCC(F)(F)F)cc3Cl)C[C@H]2C(=O)NC2(C#N)CC2)COC1` [Example 294, (2S,4R)-4-[2-Chloro-4-(2,2,2-trifluoro-ethoxy)-benzenesulfonyl]-1-(3-methyl-oxetane-3-carbonyl)-pyrrolidine-2-carboxylic acid (1-cyano-cyclopropyl)-amide], the IC50 amounted to 0.353 nM at Cathepsin S and 7840 nM on Cat L.

For `N#CC1(NC(=O)[C@@H]2C[C@@H](S(=O)(=O)c3ccc(OCC(F)(F)F)cc3Cl)CN2C(=O)C2(c3ccc(F)cc3)CC2)CC1` [Example 295, (2S,4R)-4-[2-Chloro-4-(2,2,2-trifluoro-ethoxy)-benzenesulfonyl]-1-[1-(4-fluoro-phenyl)-cyclopropanecarbonyl]-pyrrolidine-2-carboxylic acid (1-cyano-cyclopropyl)-amide], the IC50 stood at 0.03 nM on Cathepsin S and 925 nM at Cat L.

Consider `CC(C)(C)N1CCN(c2ccc(S(=O)(=O)[C@@H]3C[C@@H](C(=O)NC4(C#N)CC4)N(C(=O)C4(C(F)(F)F)CC4)C3)c(Cl)c2)CC1` [Example 296, (2S,4R)-4-[4-(4-tert-Butyl-piperazin-1-yl)-2-chloro-benzenesulfonyl]-1-(1-trifluoromethyl-cyclopropanecarbonyl)-pyrrolidine-2-carboxylic acid (1-cyano-cyclopropyl)-amide], for which the IC50 at Cathepsin S amounted to 0.123 nM; at Cat L it was 1180 nM.

For the molecule `COCCN1CCN(c2ccc(S(=O)(=O)[C@@H]3C[C@@H](C(=O)NC4(C#N)CC4)N(C(=O)C4(C(F)(F)F)CC4)C3)c(Cl)c2)CC1` [Example 297, (2S,4R)-4-{2-Chloro-4-[4-(2-methoxy-ethyl)-piperazin-1-yl]-benzenesulfonyl}-1-(1-trifluoromethyl-cyclopropanecarbonyl)-pyrrolidine-2-carboxylic acid (1-cyano-cyclopropyl)-amide], the IC50 at Cathepsin S worked out at 0.08 nM; on Cat L it was 1340 nM.

For the molecule `N#CC1(NC(=O)[C@@H]2C[C@@H](S(=O)(=O)c3ccc(N4CCN(C5CC5)CC4)cc3Cl)CN2C(=O)C2(C(F)(F)F)CC2)CC1` [Example 298, (2S,4R)-4-[2-Chloro-4-(4-cyclopropyl-piperazin-1-yl)-benzenesulfonyl]-1-(1-trifluoromethyl-cyclopropanecarbonyl)-pyrrolidine-2-carboxylic acid (1-cyano-cyclopropyl)-amide], the values for the IC50 on Cathepsin S and at Cat L were 0.22 nM and 1580 nM, respectively.

In the case of `N#CC1(NC(=O)[C@@H]2C[C@@H](S(=O)(=O)c3ccc(N4CCN5CCC[C@H]5C4)cc3Cl)CN2C(=O)C2(C(F)(F)F)CC2)CC1` [Example 299, (2S,4R)-4-((S)-2-Chloro-4-hexahydro-pyrrolo[1,2-a]pyrazin-2-yl-benzenesulfonyl)-1-(1-trifluoromethyl-cyclopropanecarbonyl)-pyrrolidine-2-carboxylic acid (1-cyano-cyclopropyl)-amide], the IC50 at Cathepsin S came out at 0.17 nM; at Cat L it was 1180 nM.

In the case of `Cc1cc(N2C[C@H](S(=O)(=O)c3ccccc3C(F)(F)F)C[C@H]2C(=O)NC2(C#N)CC2)n(C)n1` [Example 300, (2S,4R)-1-(2,5-Dimethyl-2H-pyrazol-3-yl)-4-(2-trifluoromethyl-benzenesulfonyl)-pyrrolidine-2-carboxylic acid (1-cyano-cyclopropyl)-amide], the IC50 on Cathepsin S is 0.885 nM; on Cat L it was 50700 nM.

Regarding `N#CC1(NC(=O)[C@@H]2C[C@@H](S(=O)(=O)c3ccc(N4CCn5cnnc5C4)cc3Cl)CN2C(=O)C2(C(F)(F)F)CC2)CC1` [Example 301, (2S,4R)-4-[2-Chloro-4-(5,6-dihydro-8H-[1,2,4]triazolo[4,3-a]pyrazin-7-yl)-benzenesulfonyl]-1-(1-trifluoromethyl-cyclopropanecarbonyl)-pyrrolidine-2-carboxylic acid (1-cyano-cyclopropyl)-amide], the IC50 on Cathepsin S is 0.12 nM; on Cat L, 1540 nM.

As for `N#CC1(NC(=O)[C@@H]2C[C@@H](S(=O)(=O)c3ccc(OCC(F)(F)F)cc3Cl)CN2C(=O)C2(c3ccc(Cl)cc3)CCCC2)CC1` [Example 302, (2S,4R)-1-[1-(4-Chloro-phenyl)-cyclopentanecarbonyl]-4-[2-chloro-4-(2,2,2-trifluoro-ethoxy)-benzenesulfonyl]-pyrrolidine-2-carboxylic acid (1-cyano-cyclopropyl)-amide], the 50% inhibitory concentration (IC50) at Cathepsin S stood at 0.03 nM; on Cat L, 575 nM.

As for `N#CC1(NC(=O)[C@@H]2C[C@@H](S(=O)(=O)c3ccc(OCC(F)(F)F)cc3Cl)CN2C(=O)C2(c3ccccc3)CCCCC2)CC1` [Example 303, (2S,4R)-4-[2-Chloro-4-(2,2,2-trifluoro-ethoxy)-benzenesulfonyl]-1-(1-phenyl-cyclohexanecarbonyl)-pyrrolidine-2-carboxylic acid (1-cyano-cyclopropyl)-amide], the IC50 was determined as 0.03 nM on Cathepsin S and 1480 nM at Cat L.

`Cc1ccc(C2(C(=O)N3C[C@H](S(=O)(=O)c4ccc(OCC(F)(F)F)cc4Cl)C[C@H]3C(=O)NC3(C#N)CC3)CC2)cc1` [Example 304, (2S,4R)-4-[2-Chloro-4-(2,2,2-trifluoro-ethoxy)-benzenesulfonyl]-1-(1-p-tolyl-cyclopropanecarbonyl)-pyrrolidine-2-carboxylic acid (1-cyano-cyclopropyl)-amide]: the IC50 at Cathepsin S was found to be 0.445 nM; on Cat L, 805 nM.

As to `Cc1cc(N2C[C@H](S(=O)(=O)c3ccc(OCC(F)(F)F)cc3C(F)(F)F)C[C@H]2C(=O)NC2(C#N)CC2)n(-c2ccc(C(F)(F)F)cc2)n1` [Example 306, (2S,4R)-1-[5-Methyl-2-(4-trifluoromethyl-phenyl)-2H-pyrazol-3-yl]-4-[4-(2,2,2-trifluoro-ethoxy)-2-trifluoromethyl-benzenesulfonyl]-pyrrolidine-2-carboxylic acid (1-cyano-cyclopropyl)-amide], the IC50 on Cathepsin S was 0.555 nM; on Cat L, 64500 nM.

`Cc1cc(N2C[C@H](S(=O)(=O)c3ccccc3C(F)(F)F)C[C@H]2C(=O)NC2(C#N)CC2)n(C2CCOCC2)n1` [Example 307, (2S,4R)-1-[5-Methyl-2-(tetrahydro-pyran-4-yl)-2H-pyrazol-3-yl]-4-(2-trifluoromethyl-benzenesulfonyl)-pyrrolidine-2-carboxylic acid (1-cyano-cyclopropyl)-amide]: the IC50 was 0.205 nM on Cathepsin S and 52100 nM at Cat L.

As to `N#CC1(NC(=O)[C@@H]2C[C@@H](S(=O)(=O)c3ccc(OCC(F)(F)F)cc3Cl)CN2C(=O)C2(c3ccc(C(F)(F)F)cc3)CC2)CC1` [Example 310, (2S,4R)-4-[2-Chloro-4-(2,2,2-trifluoro-ethoxy)-benzenesulfonyl]-1-[1-(4-trifluoromethyl-phenyl)-cyclopropanecarbonyl]-pyrrolidine-2-carboxylic acid (1-cyano-cyclopropyl)-amide], the IC50 on Cathepsin S came out at 0.26 nM; on Cat L it was 220 nM.

In the case of `N#CC1(NC(=O)[C@@H]2C[C@@H](S(=O)(=O)c3ccc(OCC(F)(F)F)cc3Cl)CN2C(=O)C2(c3cccc(C(F)(F)F)c3)CC2)CC1` [Example 311, (2S,4R)-4-[2-Chloro-4-(2,2,2-trifluoro-ethoxy)-benzenesulfonyl]-1-[1-(3-trifluoromethyl-phenyl)-cyclopropanecarbonyl]-pyrrolidine-2-carboxylic acid (1-cyano-cyclopropyl)-amide], the IC50 on Cathepsin S was found to be 0.155 nM; on Cat L, 745 nM.

Take `N#CC1(NC(=O)[C@@H]2C[C@@H](S(=O)(=O)c3ccccc3Cl)CN2S(=O)(=O)c2ccc3ccccc3c2)CC1` [Example 313, (2S,4R)-4-(2-Chloro-benzenesulfonyl)-1-(naphthalene-2-sulfonyl)-pyrrolidine-2-carboxylic Acid (1-cyano-cyclopropyl)-amide]: the IC50 at Cathepsin S worked out at 0.46 nM; on Cat L it was 1390 nM.

Take `N#CC1(NC(=O)[C@@H]2C[C@@H](S(=O)(=O)c3ccc(OCC(F)(F)F)cc3Cl)CN2C(=O)C2(c3ccc(Cl)cc3)CCCCC2)CC1` [Example 314, (2S,4R)-1-[1-(4-Chloro-phenyl)-cyclohexanecarbonyl]-4-[2-chloro-4-(2,2,2-trifluoro-ethoxy)-benzenesulfonyl]-pyrrolidine-2-carboxylic acid (1-cyano-cyclopropyl)-amide]: the IC50 at Cathepsin S was 0.37 nM; at Cat L, 1680 nM.

What is called IC50 is the midpoint of a concentration-inhibition curve.
